This assay relates to EGFR and cMET co-expressed tumor cell lines (A431, A549, MDA-MB-468, MKN-45, NCI-H441, NCI-H1975). The experiment in a line: Binding activity of parent mAbs by flow cytometry. The following applies: flow cytometry on tumor cell lines, FIGS. 1A-1F, Table 5; compared with zalutumumab (zalu) or cetuximab. As to the method:
EGFR and cMET co-expressed tumor cell lines including A431 (ATCC® CRL-1555), A549 (ATCC® CCL-185, Provided by Procell), MDA-MB-468 (ATCC® HTB-132, Provided by Procell), MKN-45 (CL-0292, Provided by Procell), NCI-H441 (ATCC® HTB-174, Provided by COBIOER), NCI-H1975 (ATCC® CRL-5908, Provided by Procell) were selected for evaluating antibody binding activity by flow cytometry.
A431 was cultured with DMEM medium (Gibco, Cat #C11995500BT) containing 10% FBS. MDA-MB-468, MKN-45, NCI-H441 and NCI-H1975 were cultured with RPMI 1640 medium (Gibco, Cat #11875093) containing 10% FBS. A549 was cultured with F12K medium (Gibco, Cat #21127030) containing 10% FBS. Each antibody was incubated with different cell lines (1×10^5 cells/well) for 30 min in 0.2 mL FACS buffer (1×PBS with 0.1% BSA) at 4° C. After wash, cells were incubated with 100 μL PE-conjugated anti human Fc (Abcam, Ab98596, 1:500 dilution) for 30 min at 4° C. After wash with PBS, cells were resuspended in FACS buffer and analyzed by flow cytometer (Beckman, CytoFLEX).
Background: A flow cytometer gives signals particle by particle.
“Nectitumumab: parent EGFR mAb; sequences in Table 2 as Necitumumab [reference compound]”: the “binding activity / affinity of parent EGFR mAbs (summary)” value (shortened to “binding activity / affinity”) is given as “Stronger affinity than zalu,”.
As to “Nimotuzumab: parent EGFR mAb; sequences in Table 2 [reference compound]”, the “binding activity / affinity” value is reported as “Lower affinity than zalutumumab, no significant”.
On to “Panitumumab: parent EGFR mAb; sequences in Table 2 [reference compound]”, for which the “binding activity / affinity” value was “Stronger affinity than cetuximab, binding remains”.

Source of the values: US20250381289A1, “EGFR AND C-MET BISPECIFIC BINDING AGENTS, CONJUGATES THEREOF AND METHODS OF USING THE SAME” (GENMAB A/S, priority 2024, published 2025).
